This passage reports EC50 results from patent US9346809B2 (LEO PHARMA A/S, priority 2009, dated 2016).

What is called EC50 is the midpoint of the concentration-response curve.

Common to all, as to assay type: biochemical
In experiment [1] the target is T1, JAK1 (aa 850-1154, catalytic domain, GST-tag) (Homo sapiens, UniProt P23458).
T1 construct: JAK1 (aa 850-1154) and TYK2 (aa 871-1187) are expressed with an N-terminally fused GST-tag; GST (N); purchased Carna Biosciences, Inc; host or cells: baculovirus expression system
In words: JAK kinase assay (HTRF, phosphorylation of TK substrate-biotin), JAK1. The following applies: ATP at Km (7 μM). As for the experimental part: (§1) Human baculovirus-expressed JAK1, 2, 3 and TYK2 were purchased from Carna Biosciences, Inc. All four purified enzymes contain only the catalytic domain. JAK1 (aa 850-1154) and TYK2 (aa 871-1187) are expressed with an N-terminally fused GST-tag, and JAK2 and JAK3 with an N-terminally fused His-tag.
(§2) Inhibition of phosphorylation of a synthetic peptide was measured in an HTRF-based assay using the TK substrate-Biotin from the Cisbio HTRFKinEASE TK kit. First, 2 μl of TK solution (TK substrate-biotin in kinase buffer [1× enzymatic buffer from HTRFKinEASE TK kit, 1 mM DTT]) is added to a plate containing 1 μl prediluted compound (final assay concentration DMSO: 0.75%). Then, 5 μl kinase-ATP mix (prepared in kinase buffer) is added to the wells and the plates are incubated at RT for 20-30 min. For all four kinases a concentration of ATP that corresponded to the Km for ATP was used. The final concentrations of buffers, substrate, kinase and ATP were: JAK1: 50 mM Hepes buffer pH 7.0, 0.01% BSA, 10 mM MgCl2, 1 mM DTT, 7 μM ATP, 50 nM SEB, 1 μM TK Substrate-Biotin and 5 ng JAK1; JAK2: 50 mM Hepes buffer pH 7.0, 0.01% BSA, 5 mM MgCl2, 1 mM DTT, 4 μM ATP, 1 μM TK Substrate-Biotin and 0.1 ng JAK2; JAK3: 50 mM Hepes buffer pH 7.0, 0.01% BSA, 5 mM MgCl2, 1 mM DTT, 2 μM ATP, 1 μM TK Substrate-Biotin and 0.3 ng JAK3; TYK2: 50 mM Hepes buffer pH 7.0, 0.01% BSA, 5 mM MgCl2, 1 mM DTT, 13 μM ATP, 50 nM SEB, 1 μM TK Substrate-Biotin and 0.8 ng TYK2. Thereafter, the kinase reaction is stopped by adding 4 μl detection mix (final concentrations: 50 mM Hepes buffer pH 7.0, 0.01% BSA, 0.8 M KF, 20 mM EDTA, 42 nM Streptavidin-XL665 and 1:400 STK Ab Cryptate) and the plates are incubated overnight in the dark. The HTRF signal is read using an Envision plate reader.
(§3) In Table 1 selected JAK kinase inhibitory activities are listed with the following indicators: I: EC50<100 nM, II: 100 nM≦EC50≦500 nM and III: EC50>500 nM
(In general: TR-FRET usually uses a lanthanide donor and a delayed reading to cut background.)

Experiment [2] has as its target T2, JAK2 (catalytic domain, His-tag) (Homo sapiens, UniProt O60674).
T2 construct: All four purified enzymes contain only the catalytic domain; His (N); purchased Carna Biosciences, Inc; host or cells: baculovirus expression system
Kind of experiment: JAK kinase assay (HTRF, phosphorylation of TK substrate-biotin), JAK2. The conditions noted are these: ATP at Km (4 μM). The method, then: as §1, §2, §3

Experiment [3] has as its target T3, JAK3 (catalytic domain, His-tag) (Homo sapiens, UniProt P52333).
T3 construct: All four purified enzymes contain only the catalytic domain; His (N); purchased Carna Biosciences, Inc; host or cells: baculovirus expression system
Kind of experiment: JAK kinase assay (HTRF, phosphorylation of TK substrate-biotin), JAK3. The conditions noted are these: ATP at Km (2 μM). The method, then: as §1, §2, §3

Experiment [4] concerns the target T4, TYK2 (aa 871-1187, catalytic domain, GST-tag) (Homo sapiens, UniProt P29597).
T4 construct: JAK1 (aa 850-1154) and TYK2 (aa 871-1187) are expressed with an N-terminally fused GST-tag; GST (N); purchased Carna Biosciences, Inc; host or cells: baculovirus expression system
T4 sequence (P29597 871-1187): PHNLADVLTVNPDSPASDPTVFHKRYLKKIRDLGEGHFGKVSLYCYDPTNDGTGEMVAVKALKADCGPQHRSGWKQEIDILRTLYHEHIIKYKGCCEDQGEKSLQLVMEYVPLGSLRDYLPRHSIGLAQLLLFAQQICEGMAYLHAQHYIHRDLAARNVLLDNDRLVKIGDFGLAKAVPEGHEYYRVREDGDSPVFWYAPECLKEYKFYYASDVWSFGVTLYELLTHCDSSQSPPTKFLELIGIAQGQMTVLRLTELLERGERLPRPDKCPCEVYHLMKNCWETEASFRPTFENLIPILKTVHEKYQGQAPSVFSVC
Kind of experiment: JAK kinase assay (HTRF, phosphorylation of TK substrate-biotin), TYK2. The following applies: ATP at Km (13 μM). The method, then:
as §1, §2, §3

Where [5] appears, read: read-out: JAK1 kinase inhibitory activity (EC50 indicator).
Where [6] appears, read: read-out: JAK2 kinase inhibitory activity (EC50 indicator).
Setting [7] is: read-out: JAK3 kinase inhibitory activity (EC50 indicator).
[8] abbreviates: read-out: TYK2 kinase inhibitory activity (EC50 indicator).
[9] abbreviates: HTRF assay, read-out: JAK1 kinase inhibitory activity (EC50 indicator).
The mark [10] stands for this setting: HTRF assay, read-out: JAK2 kinase inhibitory activity (EC50 indicator).
Where [11] appears, read: HTRF assay, read-out: JAK3 kinase inhibitory activity (EC50 indicator).
Setting [12] is: HTRF assay, read-out: TYK2 kinase inhibitory activity (EC50 indicator).

Read-outs that look alike come from different tables or passages of the source.

T1 sequence (P23458 850-1154): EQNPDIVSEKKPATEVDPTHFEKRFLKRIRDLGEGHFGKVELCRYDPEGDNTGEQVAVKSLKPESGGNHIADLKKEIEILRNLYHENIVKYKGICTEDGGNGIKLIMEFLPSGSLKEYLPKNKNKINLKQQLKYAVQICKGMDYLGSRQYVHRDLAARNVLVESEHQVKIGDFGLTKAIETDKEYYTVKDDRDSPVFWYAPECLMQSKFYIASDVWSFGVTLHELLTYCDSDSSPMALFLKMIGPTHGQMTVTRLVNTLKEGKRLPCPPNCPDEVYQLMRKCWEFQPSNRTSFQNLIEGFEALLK
T2 sequence (O60674 849-1124 limits assumed): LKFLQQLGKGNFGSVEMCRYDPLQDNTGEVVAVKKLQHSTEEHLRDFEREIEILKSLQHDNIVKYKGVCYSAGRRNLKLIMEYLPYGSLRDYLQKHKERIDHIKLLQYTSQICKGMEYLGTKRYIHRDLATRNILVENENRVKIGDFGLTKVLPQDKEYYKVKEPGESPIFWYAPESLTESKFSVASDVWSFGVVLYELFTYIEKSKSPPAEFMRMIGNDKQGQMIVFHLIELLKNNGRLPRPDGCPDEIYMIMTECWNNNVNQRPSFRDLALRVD
T3 sequence (P52333 822-1111 limits assumed): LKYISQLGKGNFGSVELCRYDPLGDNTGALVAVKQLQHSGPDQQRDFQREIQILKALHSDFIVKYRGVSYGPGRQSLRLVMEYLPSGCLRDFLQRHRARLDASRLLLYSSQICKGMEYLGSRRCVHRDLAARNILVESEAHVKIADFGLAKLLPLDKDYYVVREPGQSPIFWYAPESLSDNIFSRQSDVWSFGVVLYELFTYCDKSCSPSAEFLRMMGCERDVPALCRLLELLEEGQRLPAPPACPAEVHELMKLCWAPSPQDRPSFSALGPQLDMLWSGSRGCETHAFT

Consider `CS(=O)(=O)c1ccc(C(=O)N2CCN(c3ncnc4[nH]ccc34)CC23CC3)c(F)c1` [Example 183, (2-Fluoro-4-methanesulfonyl-phenyl)-[7-(7H-pyrrolo[2,3-d]pyrimidin-4-yl)-4,7-diaza-spiro[2.5]oct-4-yl]-methanone], for which the concentration for a half-maximal effect (EC50) in experiment [1] (setting [5]), in experiment [2] (setting [6]), in experiment [3] (setting [7]) and in experiment [4] (setting [8]) was < 0.1 µM in each case.

As for `Cc1ccc(C(=O)N2CCN(c3ncnc4[nH]ccc34)CC23CC3)s1` [Example 91, (5-Methyl-thiophen-2-yl)-[7-(7H-pyrrolo[2,3-d]pyrimidin-4-yl)-4,7-diaza-spiro[2.5]oct-4-yl]-methanone], the EC50 in experiment [1] (setting [5]), in experiment [2] (setting [6]), in experiment [3] (setting [7]) and in experiment [4] (setting [8]) was < 0.1 µM in each case.

For `N#CC1(C(=O)N2CCN(c3nc(N)nc4[nH]ccc34)CC23CC3)CC1` [Example 308, 1-[7-(2-Amino-7H-pyrrolo[2,3-d]pyrimidin-4-yl)-4,7-diaza-spiro[2.5]octane-4-carbonyl]-cyclopropanecarbonitrile], the EC50 was 0.1 to 0.5 µM in experiment [1] (setting [9]), < 0.1 µM in experiment [2] (setting [10]), 0.1 to 0.5 µM in experiment [3] (setting [11]) and > 0.5 µM in experiment [4] (setting [12]).

As to `N#CCOc1ccc(CC(=O)N2CCN(c3ncnc4[nH]ccc34)CC23CC3)cc1` [Example 69, (4-{2-Oxo-2-[7-(7H-pyrrolo[2,3-d]pyrimidin-4-yl)-4,7-diaza-spiro[2.5]oct-4-yl]-ethyl}-phenoxy)-acetonitrile], the EC50 in experiment [1] (setting [5]) is < 0.1 µM; in experiment [2] (setting [6]), < 0.1 µM; in experiment [3] (setting [7]), < 0.1 µM; in experiment [4] (setting [8]) it was > 0.5 µM.

For `NS(=O)(=O)c1ccc(OCCC(=O)N2CCN(c3ncnc4[nH]ccc34)CC23CC3)cc1` [Example 452, 4-{3-Oxo-3-[7-(7H-pyrrolo[2,3-d]pyrimidin-4-yl)-4,7-diaza-spiro[2.5]oct-4-yl]-propoxy}-benzenesulfonamide], the EC50 was < 0.1 µM in experiment [1] (HTRF assay, read-out: JAK1 kinase inhibitory activity (EC50)); < 0.1 µM in experiment [2] (HTRF assay, read-out: JAK2 kinase inhibitory activity (EC50)); < 0.1 µM in experiment [3] (HTRF assay, read-out: JAK3 kinase inhibitory activity (EC50)); > 0.5 µM in experiment [4] (HTRF assay, read-out: TYK2 kinase inhibitory activity (EC50)).

For `NS(=O)(=O)c1csc(C(=O)N2CCN(c3ncnc4[nH]ccc34)CC23CC3)c1` [Example 372, 5-[7-(7H-Pyrrolo[2,3-d]pyrimidin-4-yl)-4,7-diaza-spiro[2.5]octane-4-carbonyl]-thiophene-3-sulfonic acid amide], the EC50 in experiment [1] (setting [9]), in experiment [2] (setting [10]), in experiment [3] (setting [11]) and in experiment [4] (setting [12]) was < 0.1 µM in each case.

As to `Cc1ccc(C(=O)N2CCN(c3ccnc4[nH]ccc34)CC23CC3)s1` [Example 231, (5-Methyl-thiophen-2-yl)-[7-(1H-pyrrolo[2,3-b]pyridin-4-yl)-4,7-diaza-spiro[2.5]oct-4-yl]-methanone], the EC50 in experiment [1] (setting [9]) is < 0.1 µM; in experiment [2] (setting [10]) it was < 0.1 µM; in experiment [3] (setting [11]), 0.1 to 0.5 µM; in experiment [4] (setting [12]), 0.1 to 0.5 µM.

Take `O=C(c1ccc2c(c1)CCCC2)N1CCN(c2ncnc3[nH]ccc23)CC12CC2` [Example 218, [7-(7H-Pyrrolo[2,3-d]pyrimidin-4-yl)-4,7-diaza-spiro[2.5]oct-4-yl]-(5,6,7,8-tetrahydro-naphthalen-2-yl)-methanone]: the EC50 in experiment [1] (setting [9]) was < 0.1 µM; in experiment [2] (setting [10]) it was < 0.1 µM; in experiment [3] (setting [11]) it was > 0.5 µM; in experiment [4] (setting [12]), > 0.5 µM.

Consider `O=C(c1ccccc1)N1C[C@@H]2C[C@H]1CN2c1ncnc2[nH]ccc12` (racemic) [Example 253, Phenyl-[5-(7H-pyrrolo[2,3-d]pyrimidin-4-yl)-2,5-diaza-bicyclo[2.2.1]hept-2-yl]-methanone], for which the EC50 in experiment [1] (setting [9]), in experiment [2] (setting [10]), in experiment [3] (setting [11]) and in experiment [4] (setting [12]) was > 0.5 µM throughout.

As to `Cc1ccsc1C(=O)N1CCN(c2ncnc3[nH]ccc23)CC12CC2` [Example 90, (3-Methyl-thiophen-2-yl)[7-(7H-pyrrolo[2,3-d]pyrimidin-4-yl)-4,7-diaza-spiro[2.5]oct-4-yl]-methanone], the EC50 in experiment [1] (setting [5]) was < 0.1 µM; in experiment [2] (setting [6]) it was < 0.1 µM; in experiment [3] (setting [7]) it was 0.1 to 0.5 µM; in experiment [4] (setting [8]), 0.1 to 0.5 µM.

Consider `COc1cccc(C(=O)N2CCN(c3ncnc4[nH]ccc34)CC23CC3)c1OC` [Example 212, (2,3-Dimethoxy-phenyl)-[7-(7H-pyrrolo[2,3-d]pyrimidin-4-yl)-4,7-diaza-spiro[2.5]oct-4-yl]-methanone], for which the EC50 in experiment [1] (setting [9]) is 0.1 to 0.5 µM; in experiment [2] (setting [10]), < 0.1 µM; in experiment [3] (setting [11]), > 0.5 µM; in experiment [4] (setting [12]), > 0.5 µM.

Turning to `Cn1cc(S(N)(=O)=O)cc1C(=O)N1C2CCC1CN(c1ncnc3[nH]ccc13)C2` [Example 142, 1-Methyl-5-[3-(7H-pyrrolo[2,3-d]pyrimidin-4-yl)-3,8-diaza-bicyclo[3.2.1]octane-8-carbonyl]-1H-pyrrole-3-sulfonic acid amide], the EC50 in experiment [1] (setting [5]) was < 0.1 µM; in experiment [2] (setting [6]), < 0.1 µM; in experiment [3] (setting [7]), < 0.1 µM; in experiment [4] (setting [8]) it was 0.1 to 0.5 µM.

For the molecule `CC1CN(C(=O)Cc2cccc(C#N)c2)C2(CC2)CN1c1ncnc2[nH]ccc12` (stereo not shown) [Example 146, 3-{2-[6-Methyl-7-(7H-pyrrolo[2,3-d]pyrimidin-4-yl)-4,7-diaza-spiro[2.5]oct-4-yl]-2-oxo-ethyl}-benzonitrile], the EC50 was 0.1 to 0.5 µM in experiment [1] (setting [5]), < 0.1 µM in experiment [2] (setting [6]), 0.1 to 0.5 µM in experiment [3] (setting [7]) and > 0.5 µM in experiment [4] (setting [8]).

For the molecule `N#Cc1ccccc1CC(=O)N1CCN(c2ccnc3[nH]ccc23)CC12CC2` [Example 237, 2-{2-Oxo-2-[7-(1H-pyrrolo[2,3-b]pyridin-4-yl)-4,7-diaza-spiro[2.5]oct-4-yl]-ethyl}-benzonitrile], the EC50 in experiment [1] (setting [9]) is > 0.5 µM; in experiment [2] (setting [10]), 0.1 to 0.5 µM; in experiment [3] (setting [11]), 0.1 to 0.5 µM; in experiment [4] (setting [12]), > 0.5 µM.

As for `CC(=O)NCC(=O)N1CCN(c2ncnc3[nH]ccc23)CC12CC2` [Example 151, N-{2-Oxo-2-[7-(7H-pyrrolo[2,3-d]pyrimidin-4-yl)-4,7-diaza-spiro[2.5]oct-4-yl]-ethyl}-acetamide], the EC50 in experiment [1] (setting [5]) was 0.1 to 0.5 µM; in experiment [2] (setting [6]) it was 0.1 to 0.5 µM; in experiment [3] (setting [7]) it was > 0.5 µM; in experiment [4] (setting [8]), > 0.5 µM.

On to `Cc1c(C(=O)N2CCN(c3ccnc4[nH]ccc34)CC23CC3)sc2ccccc12` [Example 232, (3-Methyl-benzo[b]thiophen-2-yl)-[7-(1H-pyrrolo[2,3-b]pyridin-4-yl)-4,7-diaza-spiro[2.5]oct-4-yl]-methanone], for which the EC50 in experiment [1] (setting [9]) was < 0.1 µM; in experiment [2] (setting [10]), < 0.1 µM; in experiment [3] (setting [11]) it was > 0.5 µM; in experiment [4] (setting [12]), 0.1 to 0.5 µM.
